Target: Multidrug resistance-associated protein 1 (Homo sapiens, UniProt P33527)
Test: TP_TRANSPORTER: inhibition of LTC4 uptake (LTC4: 0.00134 uM, MS-209: 3 uM) in membrane vesicles from MKN45R0.8 cells
Format: functional, cell membranes, Membrane vesicle
Design: scale not given: the % may be the effect or the level left
Settings: mkn45r0.8, 3 µM

Multidrug resistance-associated protein 1, sequence (P33527 whole entry): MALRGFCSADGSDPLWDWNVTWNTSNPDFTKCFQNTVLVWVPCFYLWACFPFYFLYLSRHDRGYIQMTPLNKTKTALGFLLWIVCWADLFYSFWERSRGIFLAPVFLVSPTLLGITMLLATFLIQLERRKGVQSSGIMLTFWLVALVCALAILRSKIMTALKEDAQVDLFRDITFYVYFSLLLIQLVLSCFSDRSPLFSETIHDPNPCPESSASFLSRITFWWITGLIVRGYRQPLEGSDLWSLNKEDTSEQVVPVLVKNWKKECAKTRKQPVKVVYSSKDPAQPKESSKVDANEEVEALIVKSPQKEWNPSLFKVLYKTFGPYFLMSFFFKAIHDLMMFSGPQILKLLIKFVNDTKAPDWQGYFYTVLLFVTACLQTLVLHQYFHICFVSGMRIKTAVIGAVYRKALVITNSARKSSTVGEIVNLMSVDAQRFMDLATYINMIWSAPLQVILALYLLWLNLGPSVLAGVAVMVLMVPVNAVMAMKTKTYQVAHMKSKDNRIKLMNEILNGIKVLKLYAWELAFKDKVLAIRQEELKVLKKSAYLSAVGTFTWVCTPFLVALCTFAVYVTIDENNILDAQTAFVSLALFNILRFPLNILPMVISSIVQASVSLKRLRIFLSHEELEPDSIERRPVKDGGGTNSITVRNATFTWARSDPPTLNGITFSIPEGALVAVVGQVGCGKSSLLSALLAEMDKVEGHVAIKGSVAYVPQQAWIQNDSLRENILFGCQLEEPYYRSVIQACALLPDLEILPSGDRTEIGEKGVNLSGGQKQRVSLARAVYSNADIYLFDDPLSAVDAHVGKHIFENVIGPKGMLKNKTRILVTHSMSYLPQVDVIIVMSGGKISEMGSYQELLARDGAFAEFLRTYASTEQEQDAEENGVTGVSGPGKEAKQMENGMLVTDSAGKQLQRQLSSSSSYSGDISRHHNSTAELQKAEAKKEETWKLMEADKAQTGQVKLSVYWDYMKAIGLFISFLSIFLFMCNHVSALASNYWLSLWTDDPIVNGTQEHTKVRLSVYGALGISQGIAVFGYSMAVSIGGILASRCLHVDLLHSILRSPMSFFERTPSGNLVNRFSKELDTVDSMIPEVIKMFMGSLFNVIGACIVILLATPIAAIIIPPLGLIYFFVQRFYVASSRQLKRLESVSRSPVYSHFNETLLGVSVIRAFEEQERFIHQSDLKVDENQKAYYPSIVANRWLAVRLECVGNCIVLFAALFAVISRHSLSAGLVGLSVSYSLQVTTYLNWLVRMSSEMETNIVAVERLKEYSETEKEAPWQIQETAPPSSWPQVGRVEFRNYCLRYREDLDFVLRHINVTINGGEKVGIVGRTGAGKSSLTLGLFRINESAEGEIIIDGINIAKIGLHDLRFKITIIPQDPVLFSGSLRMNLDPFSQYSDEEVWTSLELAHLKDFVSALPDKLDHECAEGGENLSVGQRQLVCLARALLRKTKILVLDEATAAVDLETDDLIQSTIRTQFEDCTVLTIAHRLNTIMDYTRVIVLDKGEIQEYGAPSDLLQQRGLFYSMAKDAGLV

Activity: 20%
SMILES: O=C(C(c1ccccc1)c1ccccc1)N1CCN(C[C@@H](O)COc2cccc3ncccc23)CC1
